Data: patent US6268381A, “Taxane derivatives” (Kabushiki Kaisha Yakult Honsha, priority 1997, dated 2001)
Values after ≈ are worked out from the molar mass of the structure shown.

Tests used:
[1] = tested on: KB cells; test: Growth inhibitory activity against KB cells (Test 2, XTT assay); type: cell-based, human; settings: for GI50: Homo sapiens, 72 h, 3 days culture; for Activity ratio: relative to Taxol (1.00)
Procedure: Growth Inhibitory Activity of Taxane Derivatives (1)
As KB cells derived from a human mouth cancer, those purchased from Dainippon Pharmaceutical Co., Ltd. and stored in a lyophilized from at the Research Institute of that company was used. In Dulbecco's modified Eargle's medium containing 10% fetal bovine serum (product of NISSUI PHARMACEUTICAL CO., LTD.), the KB cells were cultured and maintained under the conditions of 5%, CO2 -ari and 37° C.
Each compound was used by dissolving it in DMSO at a concentration of 10 mg/mL.
On Day-1, cells which were in a logarithmic growth phase were inoculated at 2,000 cells/100 μl/well on 96-well microtiter plates (Falcon #3072) by using a phenol-red-free culture medium with 10% fetal bovine serum contained therein (Dulbecco's modified Eargle's medium (Sigma)), and were cultured overnight. On Day 0, the compounds each of which had been diluted to 0.03 to 10,000 ng/mL with the same culture medium were added in 100 μl aliquots to the individual wells, and the cells were cultured for 3 days. Three wells were used per each drug concentration. Each plate was provided with three blank wells containing only the culture medium and also with eight wells as a drug-untreated control.
Upon use, XTT (Sigma) was dissolved at a concentration of 1 mg/mL in each culture medium which was free of serum. Phenodin methosulfate (Sigma) dissolved at a concentration of 5 mM in PBS was added to the resulting solution at a volume ratio of 1/200. To each well, the solution so prepared was added in an amount of 50 μl per well. Subsequent to culture for 4 hours, OD was measured at 450 nm by ELISA.
Calculation of 50% Growth Inhibitory Concentration (GI50)
GI50 was calculated by interpolation from a concentration-growth inhibition rate (GIR) curve. GIR was determined in accordance with the following formula: [formula]

[2] = Solubility test of water-soluble taxane derivatives (Test 1, HPLC); type: physicochemical; settings: purified water + 1.05 eq. 0.1N hydrochloric acid, shaken 2 hours at room temperature
Procedure: Solubilities of Novel Water-soluble Taxane Derivatives
I) Preparation of a calibration curve
Compound (1-4) was weighed in an amount of 2.3 mg, to which 2.3 mL of acetonitrile was added so that the compound was dissolved to provide a standard solution. Using a 10 μL portion of the standard solution, the test was conducted by HPLC (operation conditions 1). The peak area of Compound (1-4), which had been obtained from the chromatogram of the standard solution, was measured by automated integration. The peak area obtained as an average of three measurements was plotted against the amount (10 μg) of Compound (1-4) per 10 μL, whereby a calibration curve was prepared.
Calibration curve of Compound (1-4): Y =1.518 ×10^-5 X [X: peak area, Y: amount (μg) of Compound (1-4)] [HPLC operation conditions 1] Column: Inertsil ODS-2 (5-250), 40 deg. Mobile phase: 0.01M KH2 PO4 --CH3 CN (3:2). Flow rate: 1.0 mL/min. Detection: Ultraviolet absorption photometer (225 nm), 0.2 AUFS.
II) Solubility test of Compound (1-4):
Compound (1-4) was weighed in an amount of 3.7 mg and then suspended in 2.0 mL of purified water. To the resulting suspension, 41.3 μL (1.05 eq.) of 0.1N hydrochloric acid was added. […] From the area obtained as an average of three measurements, the solubility of the compound (1-4) was determined. […]

[3] = tested on: breast cancer; settings: Ann. int. Med. 111, 273, 1989; cited from earlier work
[4] = tested on: ovarian cancer; settings: Ann. int. Med. 111, 273, 1989; cited from earlier work

Row | SMILES | GI50 [1] | Activity ratio [1] | Amount dissolved ([2]; average of three measurements) | solubility at 2 h ([2]; water + 0.1n hcl) | Efficacy against breast cancer [3] | Efficacy against ovarian cancer [4]
1 | CC(=O)O[C@@]12CO[C@@H]1C[C@H](O)[C@@]1(C)C(=O)[C@H](OC(=O)N3CCC(N4CCCCC4)CC3)C3=C(C)[C@@H](OC(=O)[C@H](O)[C@@H](NC(=O)OC(C)(C)C)c4ccoc4)C[C@@](O)([C@@H](OC(=O)c4ccccc4)[C@H]21)C3(C)C [Compound 1-1, 13-0-[3-(tert-Butoxycarbonylamino)-3-(3-furyl)-2-hydroxypropionyl]-10-0-(4-piperidinopiperidinocarbonyl)-10-deacetylbaccatin III] | 0.48 ng/mL (≈ 0.484 nM) | 2.70 | – | – | – | –
2 | CC(=O)O[C@@]12CO[C@@H]1C[C@H](O)[C@@]1(C)C(=O)[C@H](OC(=O)N3CCN(C)CC3)C3=C(C)[C@@H](OC(=O)[C@H](O)[C@@H](NC(=O)OC(C)(C)C)c4ccoc4)C[C@@](O)([C@@H](OC(=O)c4ccccc4)[C@H]21)C3(C)C [Compound 1-2] | 0.28 ng/mL (≈ 0.303 nM) | 4.64 | – | – | – | –
3 | CCCN(CCC)C1CCN(C(=O)O[C@H]2C(=O)[C@@]3(C)[C@H]([C@H](OC(=O)c4ccccc4)[C@]4(O)C[C@H](OC(=O)[C@H](O)[C@@H](NC(=O)OC(C)(C)C)c5ccco5)C(C)=C2C4(C)C)[C@]2(OC(C)=O)CO[C@@H]2C[C@@H]3O)CC1 [Compound 1-3, 13-0-[3-(tert-Butoxycarbonylamino)-3-(2-furyl)-2-hydroxypropionyl]-10-0-(4-dipropylaminopiperidinocarbonyl)-10-deacetylbaccatin III] | 0.43 ng/mL (≈ 0.427 nM) | 3.02 | – | – | – | –
4 | CCN1CCN(C(=O)O[C@H]2C(=O)[C@@]3(C)[C@H]([C@H](OC(=O)c4ccccc4)[C@]4(O)C[C@H](OC(=O)[C@H](O)[C@@H](NC(=O)OC(C)(C)C)c5ccco5)C(C)=C2C4(C)C)[C@]2(OC(C)=O)CO[C@@H]2C[C@@H]3O)CC1 [Compound 1-4, 13-0-[3-(tert-Butoxycarbonylamino)-3-(2-furyl)-2-hydroxypropionyl]-10-0-(4-ethylpipezinocarbonyl)-10-deacetylbaccatin III] | 0.23 ng/mL (≈ 0.245 nM) | 5.65 | 7.87 μg/5 μL | 1570 µg/mL | – | –
5 | CC(=O)O[C@H]1C(=O)[C@@]2(C)[C@H]([C@H](OC(=O)c3ccccc3)[C@]3(O)C[C@H](OC(=O)[C@H](O)[C@@H](NC(=O)c4ccccc4)c4ccccc4)C(C)=C1C3(C)C)[C@]1(OC(C)=O)CO[C@@H]1C[C@@H]2O [Taxol] | 1.3 ng/mL (≈ 1.52 nM) | – | – | – | high efficacy | high efficacy
